The source of these data is ChEMBL document CHEMBL5465560, “Selectivity Literature for EUbOPEN Chemogenomic Library” (2024).

The structures appear in SMILES notation.

The target in test [1] is Casein kinase I isoform gamma-1 (Homo sapiens) (UniProt Q9HCP0). The test is described as follows: Selectivity interaction (Kinase panel (KiNativ target engagement assay in Jurkat cells)) EUB0001635a CSNK1G1. To be noted: at 1 µM. In kind it is cell-based.
Test [2] deals with Mitogen-activated protein kinase kinase kinase 9 (Homo sapiens) (UniProt P80192). As to the kind of experiment: Selectivity interaction (Ambit KINOMEscan and KiNATiv profiling in Jurkat cells) EUB0000090b MAP3K9. Format: cell-based. The conditions noted are these: at 1 µM.
Test [3] deals with Tyrosine-protein kinase SYK (Homo sapiens, UniProt P43405). As to the kind of experiment: Selectivity interaction (KinomeScan (DiscoverX)) EUB0000607a SYK. The conditions noted are these: at 10 µM.
The target of test [4] is T1, Histone-lysine N-methyltransferase SMYD3 (Homo sapiens) (UniProt Q9H7B4).
T1 sequence (whole entry): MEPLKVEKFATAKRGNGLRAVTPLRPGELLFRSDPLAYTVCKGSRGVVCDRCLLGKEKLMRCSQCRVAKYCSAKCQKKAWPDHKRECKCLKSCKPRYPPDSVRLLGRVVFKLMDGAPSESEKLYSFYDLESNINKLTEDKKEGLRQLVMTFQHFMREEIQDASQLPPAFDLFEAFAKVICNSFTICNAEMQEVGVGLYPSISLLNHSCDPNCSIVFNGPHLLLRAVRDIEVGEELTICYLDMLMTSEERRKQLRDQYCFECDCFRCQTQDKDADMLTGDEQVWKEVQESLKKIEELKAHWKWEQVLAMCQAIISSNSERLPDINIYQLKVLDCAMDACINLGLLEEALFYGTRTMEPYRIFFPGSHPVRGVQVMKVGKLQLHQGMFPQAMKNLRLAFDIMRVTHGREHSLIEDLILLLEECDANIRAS
The conditions noted are these: at 10 µM.

Test [5] addresses MAP/microtubule affinity-regulating kinase 3 (Homo sapiens) (UniProt P27448). As to the kind of experiment: Selectivity interaction (KinomeScan (DiscoverX)) EUB0001619a MARK3. To be noted: at 1 µM.
Test [6] addresses Calcium/calmodulin-dependent protein kinase type II subunit delta (Homo sapiens) (UniProt Q13557). The test is described as follows: Selectivity interaction (Kinase panel (Invitrogen)) EUB0000639a CAMK2D. To be noted: at 200 nM.
For test [7], the target named is Receptor-type tyrosine-protein kinase FLT3 (Homo sapiens) (UniProt P36888). As to the kind of experiment: Selectivity interaction (Kinase panel (Invitrogen)) EUB0000639a FLT3. The conditions noted are these: at 200 nM.
Test [8] has as its target Phosphatidylinositol 3-kinase catalytic subunit type 3 (Homo sapiens, UniProt Q8NEB9). As to the kind of experiment: Selectivity interaction (ActivX KiNativ screen (kinase selectivity in THP-1 cell lysates)) EUB0000639a PIK3C3. In kind it is subcellular. To be noted: lysate, at 5 µM.
In test [9] the target is Protein kinase C alpha type (Homo sapiens, UniProt P17252). As to the kind of experiment: Selectivity interaction (Kinase panel (Invitrogen)) EUB0000639a PRKCA. The conditions noted are these: at 200 nM.
The target of test [10] is Serine/threonine-protein kinase tousled-like 2 (Homo sapiens) (UniProt Q86UE8). As to the kind of experiment: Selectivity interaction (ActivX KiNativ screen (kinase selectivity in THP-1 cell lysates)) EUB0000639a TLK2. To be noted: lysate, at 1 µM. In kind it is subcellular.
Test [11] has as its target Cyclin-dependent kinase 3 (Homo sapiens) (UniProt Q00526). The conditions noted are these: at 10 µM.
For test [12], the target named is Dual specificity protein kinase CLK3 (Homo sapiens, UniProt P49761). As to the kind of experiment: Selectivity interaction (KinomeScan (DiscoverX)) EUB0001049a CLK3. To be noted: at 1 µM.
Test [13] deals with T2, Serine/threonine-protein kinase MAK (Homo sapiens) (UniProt P20794).
T2 sequence (whole entry): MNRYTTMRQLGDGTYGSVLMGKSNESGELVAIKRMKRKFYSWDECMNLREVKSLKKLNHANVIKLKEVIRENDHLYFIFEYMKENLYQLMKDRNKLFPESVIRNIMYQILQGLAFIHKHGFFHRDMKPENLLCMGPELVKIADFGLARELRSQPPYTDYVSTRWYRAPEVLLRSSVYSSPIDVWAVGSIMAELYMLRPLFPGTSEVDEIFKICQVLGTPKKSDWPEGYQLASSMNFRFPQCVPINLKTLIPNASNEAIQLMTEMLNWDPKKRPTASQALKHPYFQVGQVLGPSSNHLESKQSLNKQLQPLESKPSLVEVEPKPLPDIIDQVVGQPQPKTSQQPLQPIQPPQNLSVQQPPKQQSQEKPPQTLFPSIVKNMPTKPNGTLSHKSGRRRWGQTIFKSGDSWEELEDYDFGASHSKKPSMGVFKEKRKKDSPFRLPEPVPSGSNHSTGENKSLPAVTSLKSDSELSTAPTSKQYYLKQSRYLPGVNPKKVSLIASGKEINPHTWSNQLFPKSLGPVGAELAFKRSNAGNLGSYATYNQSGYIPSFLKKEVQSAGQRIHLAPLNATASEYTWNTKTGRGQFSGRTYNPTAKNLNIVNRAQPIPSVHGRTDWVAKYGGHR
The test is described as follows: Selectivity interaction (KinomeScan (DiscoverX)) EUB0001049a MAK. The conditions noted are these: at 1 µM.

Test [14] has as its target Histone-lysine N-methyltransferase KMT5C (Homo sapiens) (UniProt Q86Y97). The test is described as follows: Selectivity interaction (Transferase panel (protein, RNA, and DNA methyltransferases. and EP300 (acetyltransferase))) EUB0000270b SUV420H2.
Test [15] deals with Epidermal growth factor receptor (Homo sapiens), P00533 [UNDEFINED MUTATION]. The test is described as follows: Selectivity interaction (KinomeScan (DiscoverX)) EUB0000045b EGFR. To be noted: at 10 µM.
Test [16] addresses Interferon-induced, double-stranded RNA-activated protein kinase (Homo sapiens) (UniProt P19525). As to the kind of experiment: Selectivity interaction (KinomeScan (DiscoverX)) EUB0000045b EIF2AK2.
The target of test [17] is Receptor-interacting serine/threonine-protein kinase 2 (Homo sapiens, UniProt O43353). The test is described as follows: Selectivity interaction (KinomeScan (DiscoverX)) EUB0000618a RIPK2. To be noted: at 10 µM.
Test [18] concerns the target LIM domain kinase 2 (Homo sapiens) (UniProt P53671). The conditions noted are these: at 10 µM.

Chain of Histone-lysine N-methyltransferase KMT5C (Homo sapiens) (Q86Y97 whole entry, looked up): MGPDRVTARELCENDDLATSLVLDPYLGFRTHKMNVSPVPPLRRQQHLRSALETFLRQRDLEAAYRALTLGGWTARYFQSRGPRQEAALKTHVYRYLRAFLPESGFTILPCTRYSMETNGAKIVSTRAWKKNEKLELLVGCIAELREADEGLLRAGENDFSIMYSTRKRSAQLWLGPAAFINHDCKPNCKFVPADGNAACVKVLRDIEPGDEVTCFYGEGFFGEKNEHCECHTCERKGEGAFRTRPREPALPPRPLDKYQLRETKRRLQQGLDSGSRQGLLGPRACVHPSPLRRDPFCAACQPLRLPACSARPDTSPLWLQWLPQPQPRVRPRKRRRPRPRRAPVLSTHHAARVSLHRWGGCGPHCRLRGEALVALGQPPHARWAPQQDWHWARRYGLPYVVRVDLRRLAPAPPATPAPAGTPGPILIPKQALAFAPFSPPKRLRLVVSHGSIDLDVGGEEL
Chain of Interferon-induced, double-stranded RNA-activated protein kinase (Homo sapiens) (P19525 whole entry): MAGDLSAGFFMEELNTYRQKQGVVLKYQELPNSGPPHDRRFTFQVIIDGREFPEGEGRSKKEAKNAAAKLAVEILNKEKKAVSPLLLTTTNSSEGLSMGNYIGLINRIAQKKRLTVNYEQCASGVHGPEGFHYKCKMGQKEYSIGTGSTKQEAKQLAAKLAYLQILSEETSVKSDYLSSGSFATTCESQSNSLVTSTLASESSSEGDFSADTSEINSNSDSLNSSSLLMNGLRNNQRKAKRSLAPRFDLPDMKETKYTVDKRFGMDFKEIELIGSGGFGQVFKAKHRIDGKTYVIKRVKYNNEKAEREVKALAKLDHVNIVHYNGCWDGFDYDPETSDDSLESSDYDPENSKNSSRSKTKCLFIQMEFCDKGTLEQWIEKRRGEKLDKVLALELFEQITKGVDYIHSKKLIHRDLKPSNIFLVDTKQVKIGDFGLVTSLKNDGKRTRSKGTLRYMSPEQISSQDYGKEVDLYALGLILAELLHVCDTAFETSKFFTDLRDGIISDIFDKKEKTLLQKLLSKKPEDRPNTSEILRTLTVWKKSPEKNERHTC
Chain of LIM domain kinase 2 (Homo sapiens) (P53671 whole entry, looked up, the tested form may be a part): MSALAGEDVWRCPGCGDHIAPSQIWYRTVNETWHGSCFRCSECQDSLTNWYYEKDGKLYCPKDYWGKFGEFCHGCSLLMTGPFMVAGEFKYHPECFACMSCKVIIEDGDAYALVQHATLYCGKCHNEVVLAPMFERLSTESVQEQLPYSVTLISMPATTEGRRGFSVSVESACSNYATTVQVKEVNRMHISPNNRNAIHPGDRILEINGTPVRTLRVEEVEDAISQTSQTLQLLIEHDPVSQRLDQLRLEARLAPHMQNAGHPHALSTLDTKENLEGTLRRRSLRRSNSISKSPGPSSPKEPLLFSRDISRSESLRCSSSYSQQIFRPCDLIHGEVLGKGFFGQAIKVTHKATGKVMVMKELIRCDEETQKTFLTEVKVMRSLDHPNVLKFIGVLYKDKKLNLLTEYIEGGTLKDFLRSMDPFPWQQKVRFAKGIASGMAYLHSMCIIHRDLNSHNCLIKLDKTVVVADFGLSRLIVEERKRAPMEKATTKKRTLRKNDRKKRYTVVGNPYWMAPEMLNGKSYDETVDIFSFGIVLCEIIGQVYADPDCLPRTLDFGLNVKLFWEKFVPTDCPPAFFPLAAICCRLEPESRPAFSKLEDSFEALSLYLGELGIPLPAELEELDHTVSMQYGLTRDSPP
Chain of Receptor-type tyrosine-protein kinase FLT3 (Homo sapiens) (P36888 whole entry): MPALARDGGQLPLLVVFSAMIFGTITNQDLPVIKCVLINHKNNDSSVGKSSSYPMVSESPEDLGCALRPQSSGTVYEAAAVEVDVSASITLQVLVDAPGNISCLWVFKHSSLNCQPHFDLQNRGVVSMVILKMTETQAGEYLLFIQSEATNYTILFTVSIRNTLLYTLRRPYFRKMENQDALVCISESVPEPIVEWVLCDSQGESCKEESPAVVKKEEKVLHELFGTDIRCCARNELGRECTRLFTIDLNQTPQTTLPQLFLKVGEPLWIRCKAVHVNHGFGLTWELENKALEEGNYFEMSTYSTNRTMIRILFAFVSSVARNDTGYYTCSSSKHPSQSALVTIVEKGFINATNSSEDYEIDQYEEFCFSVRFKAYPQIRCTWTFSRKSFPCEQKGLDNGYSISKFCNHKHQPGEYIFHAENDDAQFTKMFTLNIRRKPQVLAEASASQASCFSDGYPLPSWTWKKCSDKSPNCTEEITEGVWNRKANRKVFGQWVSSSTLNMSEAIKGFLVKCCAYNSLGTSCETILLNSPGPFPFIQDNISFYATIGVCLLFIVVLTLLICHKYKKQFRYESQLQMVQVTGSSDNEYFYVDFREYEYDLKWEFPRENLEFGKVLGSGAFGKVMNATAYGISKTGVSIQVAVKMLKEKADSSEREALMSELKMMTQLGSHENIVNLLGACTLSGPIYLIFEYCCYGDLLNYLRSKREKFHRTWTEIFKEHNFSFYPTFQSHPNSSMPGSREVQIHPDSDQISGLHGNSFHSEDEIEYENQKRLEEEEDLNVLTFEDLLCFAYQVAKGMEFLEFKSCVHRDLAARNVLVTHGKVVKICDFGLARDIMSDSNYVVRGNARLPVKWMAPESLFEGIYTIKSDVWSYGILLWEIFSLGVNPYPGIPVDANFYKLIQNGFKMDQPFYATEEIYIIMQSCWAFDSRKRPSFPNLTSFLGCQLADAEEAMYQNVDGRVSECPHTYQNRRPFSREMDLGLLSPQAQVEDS
Chain of Dual specificity protein kinase CLK3 (P49761 whole entry, looked up): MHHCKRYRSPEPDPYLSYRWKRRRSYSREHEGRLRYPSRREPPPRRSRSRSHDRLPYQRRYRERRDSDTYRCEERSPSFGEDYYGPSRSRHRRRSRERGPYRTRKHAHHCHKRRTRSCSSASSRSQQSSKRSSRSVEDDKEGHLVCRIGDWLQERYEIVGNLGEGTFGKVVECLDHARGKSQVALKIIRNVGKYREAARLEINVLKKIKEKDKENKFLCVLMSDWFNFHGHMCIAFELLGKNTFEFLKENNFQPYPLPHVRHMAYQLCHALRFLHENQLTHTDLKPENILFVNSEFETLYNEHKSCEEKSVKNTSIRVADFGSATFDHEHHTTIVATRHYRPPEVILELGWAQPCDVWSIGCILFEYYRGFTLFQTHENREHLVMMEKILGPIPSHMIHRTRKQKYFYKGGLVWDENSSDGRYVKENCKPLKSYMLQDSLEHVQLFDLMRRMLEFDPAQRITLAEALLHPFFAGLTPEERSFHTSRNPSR
Chain of MAP/microtubule affinity-regulating kinase 3 (Homo sapiens) (P27448 whole entry, looked up): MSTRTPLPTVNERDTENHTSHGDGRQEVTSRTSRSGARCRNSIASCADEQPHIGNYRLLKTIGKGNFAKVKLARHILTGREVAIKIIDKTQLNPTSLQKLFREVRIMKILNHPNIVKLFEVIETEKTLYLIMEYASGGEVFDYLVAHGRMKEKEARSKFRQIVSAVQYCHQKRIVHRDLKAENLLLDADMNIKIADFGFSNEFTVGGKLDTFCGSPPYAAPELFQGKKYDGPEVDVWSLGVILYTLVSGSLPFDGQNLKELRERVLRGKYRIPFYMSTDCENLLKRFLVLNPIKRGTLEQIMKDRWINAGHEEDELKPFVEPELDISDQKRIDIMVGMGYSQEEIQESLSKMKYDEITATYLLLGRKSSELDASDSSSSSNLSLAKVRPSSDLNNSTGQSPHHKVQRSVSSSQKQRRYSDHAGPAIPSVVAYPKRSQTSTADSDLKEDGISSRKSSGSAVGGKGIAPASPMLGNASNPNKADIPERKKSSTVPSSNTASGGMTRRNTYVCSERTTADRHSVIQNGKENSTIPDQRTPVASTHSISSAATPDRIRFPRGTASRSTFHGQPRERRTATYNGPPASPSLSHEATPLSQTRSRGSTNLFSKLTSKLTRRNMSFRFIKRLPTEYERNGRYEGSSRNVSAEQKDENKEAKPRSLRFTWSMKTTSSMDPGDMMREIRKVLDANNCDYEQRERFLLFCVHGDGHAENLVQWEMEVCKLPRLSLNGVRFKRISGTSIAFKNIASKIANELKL
Chain of Casein kinase I isoform gamma-1 (Homo sapiens) (Q9HCP0 whole entry, looked up, canonical isoform): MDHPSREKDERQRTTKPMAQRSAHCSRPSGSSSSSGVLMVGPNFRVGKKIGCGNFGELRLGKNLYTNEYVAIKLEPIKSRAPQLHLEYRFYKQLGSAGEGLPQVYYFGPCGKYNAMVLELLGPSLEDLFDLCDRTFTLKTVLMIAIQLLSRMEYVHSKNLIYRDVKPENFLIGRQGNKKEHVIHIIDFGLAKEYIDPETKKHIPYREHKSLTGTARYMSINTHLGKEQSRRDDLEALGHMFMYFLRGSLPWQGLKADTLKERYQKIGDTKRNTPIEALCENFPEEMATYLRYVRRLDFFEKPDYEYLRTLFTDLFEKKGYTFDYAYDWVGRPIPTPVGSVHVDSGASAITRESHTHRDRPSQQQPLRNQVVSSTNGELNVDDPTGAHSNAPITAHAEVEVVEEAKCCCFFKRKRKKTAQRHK

In the case of `C=CC(=O)Nc1ccc(C(=O)Nc2[nH]nc3c2CN(C(=O)N[C@H](CN(C)C)c2ccccc2)C3(C)C)cc1`, in [1], the % of engagement is -7.7%.

With `CN(C)C/C=C/C(=O)Nc1ccc(C(=O)N2CCCC(Nc3ncc(Cl)c(-c4c[nH]c5ccccc45)n3)C2)cc1` (stereo not given), the % of control in [2] stood at 100%.

Regarding `CNC(=O)Nc1ccc(-c2nc(N3CC4CCC(C3)O4)c3cnn(C4CCC5(CC4)OCCO5)c3n2)cc1`, in test [3], the % of control is 100%.

Consider `CNCCN1CCC(c2cc(CN(C)C(=O)c3cccc(Oc4ccccc4)c3)ccn2)CC1`, for which, in [4], the % activity is > 90%.

As to `N#Cc1cccc(-c2c[nH]c3ncnc(N4CCOCC4)c23)c1`, the % of control in test [5] stood at 100%.

As for `CC[C@@H]1[C@H](F)C(=O)N[C@@H]1COc1nccc2cc(C(N)=O)c(OC)cc12` [ZIMLOVISERTIB], the % of inhibition in test [6] came to 24.9%; in test [7], 29.4%; in [8], 30.7%; in test [9], 6.64%; in [10], 43.3%.

In [11], `CCN(CC)CCCCNc1ncc2cc(-c3cc(OC)cc(OC)c3)c(NC(=O)NC(C)(C)C)nc2n1` registered a % of control of 100%.

`COc1cc(Nc2nc(C)cc(-c3cnn4nc(OC)ccc34)n2)cc(C(F)(F)F)c1`: the % of control in [12] was 80%; in test [13], 84%.

`Cc1cc(CN)cc(C)c1-c1ncn(C)c1-c1cncn1C`: the % activity in [14] (at 1 µM) was > 90%; in [14] (at 10 µM) it was > 80%.

Regarding `C=CC(=O)Nc1cc(-n2c(=O)ccc3cnc4ccc(-c5ccc(NS(C)(=O)=O)cc5)cc4c32)ccc1C`, the % of control in test [15] stood at 57%; in test [16] (at 1 µM) it was 100%; in test [16] (at 10 µM), 71%.

The molecule `O[C@H]1CC[C@H](Nc2ncc3nc(Nc4c(F)cc(F)cc4F)n([C@H]4CCOC4)c3n2)CC1` yielded a % of control in test [17] of 37%.

Consider `COCC(=O)NC/C=C/c1ccc2ncnc(Nc3ccc(Oc4ccc(C)nc4)c(C)c3)c2c1` [CP-724714], for which the % of control in test [18] turned out to be 100%.
